These results are taken from US4526898A, “Antihypertensive 4-(2-imidazolin-2-yl-amino)-2-methyl-indazole” (priority 1983, dated 1985).

The term LD50 denotes the dose expected to kill half of the subjects tested.

Data set [1] has as its system Mouse. Kind of data set: Doubling of hexobarbitone sodium sleeping time (CNS activity). Format: in vivo. The settings on record: po, read-out: Effective dose: Double hexobarbitone sodium sleeping time. Here is the method:
(§1) All tests were carried out under identical conditions according to standard testing methods. The animal species used, the route of administering the material to be tested, the type of test and the results obtained are shown in Table I hereunder.

The test system of data set [2] is Mouse. Briefly: Doubling of ethanol sleeping time (CNS activity). It is filed as in vivo. To be noted: po, read-out: Effective dose: Double ethanol sleeping time. On the procedure: as §1
For data set [3], the system named is Rat. Briefly: Doubling of chloralhydrate sleeping time (CNS activity). Format: in vivo. To be noted: po, read-out: Effective dose: Double chloralhydrate sleeping time. On the procedure: as §1
Data set [4] deals with Mouse. Kind of data set: Reduction in exploratory behaviour. Format: in vivo. The settings on record: po, read-out: Effective dose: 50% reduction in exploratory behaviour. On the procedure:
as §1

Data set [5] concerns Rat. Kind of data set: Reduction in tetrabenazine-induced ptosis. To be noted: po, read-out: Effective dose: 50% reduction in tetrabenazine-induced ptosis. It is filed as in vivo. Here is the method: as §1
Data set [6] relates to Mouse. Briefly: Reduction of 5HTP-induced head twitches. Format: in vivo. The settings on record: sc, read-out: Effective dose: 50% reduction of 5HTP-induced head twitches. Here is the method:
as §1

Data set [7] deals with Mouse. Briefly: Inhibition of acetic acid-induced writhing. It is filed as in vivo. To be noted: po, read-out: Effective dose: 50% inhibition of acetic acid-induced writhing. On the procedure: as §1
On the technique in general: Writhing tests count abdominal constrictions after an irritant is injected.

For data set [8], the system named is Mouse. Briefly: Inhibition of heat-induced tail flick. It is filed as in vivo. To be noted: po, read-out: Effective dose: 50% inhibition of heat-induced tail flick. On the procedure: as §1
The subject of another data set is conscious cats. Kind of data set: Behavioural observation in conscious cats. It is filed as in vivo, cat.
Data set [9] concerns adrenaline vasopressor effect. Briefly: Adrenaline antagonism (adrenaline reversal) in anaesthetised cats. The settings on record: adrenaline i.v., 5 to 10 mg/kg b.w. intraduodenally. Format: in vivo, cat. From the text:
Experimental hypertension was induced in anaesthetised cats by administering (i.v.) adrenaline.

The next data set in a line: Toxicity LD50 in mouse. The settings on record: in vivo. On the procedure:
(§2) Toxicity values were determined applying identical standard methods. The data obtained are listed herebelow in Table II showing LD50 values as mg/kg body weight.

Another data set in a line: Toxicity LD50 in rat. To be noted: in vivo. On the procedure: as §2
Data set [10] can be described thus: Antihypertensive activity in nephrogenic GOLDBLATT hypertensive rats. It is filed as in vivo, rat. The settings on record: in vivo, po; GOLDBLATT hypertensive rats, p.o.; LD50 rat p.o.; read-out: therapeutic index LD50 /ED50. Here is the method:
(§3) Antihypertensive activities for Sgd 101/75 of the invention and Sgd 230/75 of U.S. Pat. No. 4,036,976 were determined with nephrogenic GOLDBLATT hypertensive rats.

The test system of data set [11] is nephrogenic GOLDBLATT hypertensive rats. The description is as above. Format: in vivo, rat. The settings on record: for ED50: Rattus norvegicus, po, nephrogenic GOLDBLATT hypertensive rats. On the procedure: as §3
In a further data set the test system is α2 -adrenoceptors. Briefly: Adrenoceptor activity, α2. To be noted: summary statement.
For the next data set, the system named is α1 -adrenoceptors. Briefly: Adrenoceptor activity, α1. The settings on record: summary statement.
The test system of data set [12] is extra-cellular calcium controlled α1s -adrenoceptors. Kind of data set: Adrenoceptor activity, α1s. The settings on record: summary statement.
Data set [13] in a line: Blood-brain barrier penetration. The settings on record: summary statement.
The subject of data set [14] is drug-metabolising enzymes in the liver. Briefly: Induction of drug-metabolising enzymes in the liver. The settings on record: summary statement.
Data set [15] relates to genetically fixed hypertension rats. To be noted: p.o., prior art background; cited from earlier work.

Where two headings read alike, the source gives them in different places.

For `Clc1cccc(Cl)c1N=C1NCCN1` [Clonidine, 2-((2,6-dichloro-phenyl)-imino)-imidazolidine, reference compound], the figures for the ED (2-fold sleeping time) with Mouse [1], with Mouse [2] and in the data set with Rat [3] were 0.3 mg/kg, 0.02 mg/kg and 0.05 mg/kg, respectively. The ED50 came out at 0.12 mg/kg in the data set with Mouse [4]; 0.3 mg/kg in the data set on Rat [5] (Rat, p.o.); 0.028 mg/kg with Mouse [6]; 0.07 mg/kg in the data set with Mouse [7]; 5 mg/kg with Mouse [8]. The “Behavioural changes / CNS depression” value in the data set on conscious cats (1 mg/kg i.p.) was “signs of CNS depression”.
Turning to `Cn1cc2c(NC3=NCCN3)cccc2n1` [Sgd 101/75, 4-(2-imidazolin-2-yl-amino)-2-methyl-indazole], the ED (2-fold sleeping time) with Mouse [1], with Mouse [2] and in the data set with Rat [3] was > 100 mg/kg each time. For the same compound, the ED50 in the data set with Mouse [4] is 72 mg/kg; in the data set with Rat [5] (Rattus norvegicus) it was 33 mg/kg; in the data set on Mouse [6], 28 mg/kg; with Mouse [7], 4.5 mg/kg; with Mouse [8], > 100 mg/kg; in data set [11], 4.2 mg/kg. Moreover, the “Behavioural changes / CNS depression” value in the data set on conscious cats (4 and 10 mg/kg i.p.) is “no apparent behavioural changes”. Besides, the “Effect on adrenaline vasopressor effect (adrenaline reversal)” value in data set [9] was “conversion of the vasopressor effect of adrenaline into a depressor response”. In addition, the LD50 in “Toxicity LD50 in mouse” (iv) was 58 mg/kg; in the data set “Toxicity LD50 in mouse” (po) it was 3900 mg/kg; in the data set “Toxicity LD50 in rat” (iv), 69 mg/kg; in the data set “Toxicity LD50 in rat” (po) it was 3220 mg/kg. The selectivity ratio in data set [10] is 767. Also, the “anti-hypertensive activity relative to the prior art compound” value in data set [11] (relative to Sgd 230/75, taking into account LD50 values (rat, p.o.)) is on record as “about 190%”. For the same compound, the “Activity on α2 -adrenoceptors” value in the data set with α2 -adrenoceptors is on record as “complete antagonist”. In the data set with α1 -adrenoceptors, the “Activity on α1 -adrenoceptors” value is listed as “partial agonist”. The “Activity on α1s -adrenoceptors” value in data set [12] was “complete and highly specific agonist”. For the same compound, the “Penetration of the blood-brain barrier” value in [13] is given as “does not readily penetrate the blood-brain barrier”. For the same compound, the “Induction of drug-metabolising enzymes in the liver” value in data set [14] is recorded as “does not induce drug-metabolising enzymes in the liver”.
For the compound `Cn1ncc2c(NC3=NCCN3)cccc21` [Sgd 230/75, 4-(2-imidazolin-2-yl-amino)-1-methyl-indazole, reference compound], the LD50 in the data set “Toxicity LD50 in mouse” (iv) is 22 mg/kg; in the data set “Toxicity LD50 in mouse” (po), 600 mg/kg; in the data set “Toxicity LD50 in rat” (iv) it was 90 mg/kg; in “Toxicity LD50 in rat” (po), 1200 mg/kg. In data set [10], the selectivity ratio worked out at 400. This compound gave an ED50 in data set [11] of 3 mg/kg. Besides, the “therapeutic index LD50 /ED50” value in data set [15] is 800.
